Results published in PubChem BioAssay AID1902 (Broad Institute, 2009).
Calls of active or inactive are those of the source.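 The calls were made as follows: active = EC50 no more than a set limit of log units above the highest dose; inactive = the rest.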

Target: S. pyogenes SKKanGAS, kanamycin survival, BacTiterGlo, 6 h
Experiment: SKKanGAS survival reduction under kanamycin, dose response, streptokinase promoter inhibitor project, SKKanGAS strain, luminescence, dose confirmation (AID 1902);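 also: lower survival reflects blocked streptokinase promoter driving kanamycin resistance gene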

Row | Compound | EC50
1 | COc1cc2nc(CSc3nc(-c4ccc(F)cc4)cs3)[nH]c(=O)c2cc1OC | > 15 µM (inactive)
2 | Cc1cc(NCc2ccccn2)n2nc(C)c(-c3ccc(Cl)cc3)c2n1 | 4.36 µM
3 | CCOC(=O)c1nnn(-c2nonc2-n2cccc2)c1CN1CCC(C)CC1 | 8.02 µM
4 | S=C(Nc1ccc(Cl)cc1)c1nc2ccccc2[nH]1 | 0.183 µM
5 | CC(C)c1ccc(-n2cccc2/C=C2/C(=N)N3C=CSC3=NC2=O)cc1 | 3.28 µM
6 | Cc1nn(-c2ccccc2)c(Cl)c1/C=N/NC(=O)c1ccc(NS(=O)(=O)c2cccs2)cc1 | 2.34 µM
7 | COc1ccc(Oc2nc(-c3ccccn3)nc3ccccc23)cc1 | 6.49 µM
8 | Cc1ccc(SCC(=O)N2c3ccccc3Sc3ccccc32)cc1 | 3.78 µM
9 | COc1ccc(/C=C/C(=O)NC(=S)NNC(=O)c2cc(OC)c(OC)c(OC)c2)cc1OC | 1.48 µM
10 | CC(=O)OCC1=C(C(=O)O)N2C(=O)C(NC(=O)c3ccc(COc4cccc(Cl)c4Cl)o3)C2SC1 (configuration not stated) | 2.79 µM
11 | O=C(Nc1nnc(SCc2ccccc2Cl)s1)C1COc2ccccc2O1 (configuration not stated) | 7.21 µM
12 | CC(Oc1ccc(Cl)cc1Cl)C(=O)Nc1ccc2oc(-c3ccncc3)nc2c1 (configuration not stated) | 6.24 µM
13 | O=C(Nc1nnc(-c2ccc(Br)cc2)o1)c1ccco1 | 1.2 µM
14 | COc1cccc(Nc2c3c(nc4c(-c5ccccc5)c(C)nn24)CCC3)c1 | 1.8 µM
15 | Cc1sc2ncnc(N3CCC(C(=O)NCC(=O)Nc4ccc(F)c(F)c4)CC3)c2c1C | 5.07 µM
16 | CCCCCCCCCCCCC(NC(C)=O)(C(=O)OCC)C(=O)OCC | 6.05 µM
17 | COC(=O)c1cc(-c2ccc(Br)cc2)c2c(=O)[nH]c(=O)n(C)c2n1 | 1.22 µM
18 | COc1c(N2CCNC(C)C2)c(F)cc2c(=O)c(C(=O)O)cn(C3CC3)c12 (configuration not stated) | 0.668 µM
19 | O=S(=O)(Nc1ccc(N=Nc2ccc(O)c3ccccc23)cc1)c1ccccc1 | 7.08 µM
20 | N=c1c(-c2nc3ccccc3[nH]2)cc(C(=O)c2cccs2)nn1-c1ccccc1 | 1.89 µM
21 | CCN(CC)CCN(C(=O)C1=COCCO1)c1nc2cc(C)cc(C)c2s1 | > 15 µM (inactive)
22 | Cc1ccc(Cn2cc(/C=N/NC(=O)Cc3nnc(NC(=O)c4ccc(C)cc4)s3)c3ccccc32)cc1 | 4.24 µM
23 | COc1ccc(-c2nc(NC(=O)C3CC(=O)N(c4ccc5c(c4)OCCO5)C3)sc2C)cc1 (configuration not stated) | 12 µM
24 | Cc1ccccc1C(=O)Nc1nc(=S)ss1 | 2.46 µM
25 | CCC(O)(CC)C(=O)N/N=C/c1cc(Br)cc(Br)c1O | 2.64 µM
26 | CCOc1ccc(/C=N/NC(=S)NC2CC3C=CC2C3)cc1 (configuration not stated) | > 15 µM (inactive)

Row | Compound | EC50
27 | Cc1cc(C)c2sc(NNC(=O)c3ccc(S(=O)(=O)N4CCc5ccccc5C4)cc3)nc2c1 | 1.06 µM
28 | CCCCCCC(=O)N/N=C/c1c(O)n(CCCC)c(=S)[nH]c1=O | 2.12 µM
29 | Cc1nn(-c2ccccc2)c(C)c1/C=N/NC(=O)c1cc(-c2ccc(Cl)s2)[nH]n1 | 5.8 µM
30 | COc1ccccc1N1CC(C(=O)Nc2nnc(SCC(=O)NCC3CCCO3)s2)CC1=O (configuration not stated) | > 15 µM (inactive)
31 | COc1ccc(NC(=O)c2cc(-c3cc(C)cc(C)c3O)n[nH]2)cc1Cl | 2.25 µM
32 | CSc1cccc(NC(=O)OC2CCCCCCCCCCC2)c1 | 4.1 µM
33 | CCCN(CC(=O)Nc1ccccc1OC)C(=O)c1ccncc1 | > 15 µM (inactive)
34 | COC(=O)C1N2C(=O)[C@@H](NC(=O)COc3ccccc3)[C@H]2SC1(C)C (some centres not stated) | 0.377 µM
35 | COc1ccc(-c2oc3cccnc3c2C#CC2(O)CCCCC2)cc1 | 7.36 µM
36 | CC(Nc1nc(-c2ccccc2O)nc2ccccc12)c1ccccc1 (configuration not stated) | 8.79 µM
37 | Cc1noc(C)c1S(=O)(=O)N(CCc1ccccc1)Cc1ccccc1 | 5.83 µM
38 | Cc1cc(C)n(-c2nc(SCC(=O)O)c3c4c(sc3n2)CCCC4)n1 | 5.93 µM
39 | COc1cc(OC)cc(C(=O)NC(=S)N2CCN(c3ccc(C(F)(F)F)cc3[N+](=O)[O-])CC2)c1 | 1.28 µM
40 | CC(/C=C/c1ccc(N(C)C)cc1)=N/N=C1/NC(=O)CC(C(=O)Nc2ccc(Cl)cc2)S1 (configuration not stated) | 2.38 µM
41 | O=C(Nc1nnc(-c2ccncc2)o1)c1ccc(Br)s1 | 3.27 µM
42 | Cc1nn(-c2ccccc2)c2sc(C(=O)N3CCc4ccccc4C3)cc12 | 4.16 µM
43 | COc1ccc(Nc2ncnc3scc(-c4ccc(OC)cc4)c23)cc1 | > 15 µM (inactive)
44 | Cc1nnc(SCC2=C(C(=O)O)N3C(=O)C(NC(=O)C(C)n4nc(C(F)(F)F)cc4C)C3SC2)s1 (configuration not stated) | 0.14 µM
45 | O=C(Nc1cccc(-c2ccc(N3CCOCC3)nn2)c1)c1ccccc1Cl | > 15 µM (inactive)
46 | N#CCSc1nc2ccc(N3CCOCC3)cc2c(=O)n1CCc1ccccc1 | 3.71 µM
47 | CC1(C)CC(=O)C2=C(C1)c1c(ccc3ccccc13)NC2c1cc([N+](=O)[O-])cc([N+](=O)[O-])c1O (configuration not stated) | 4.55 µM
48 | O=c1[nH]c(NNC(=S)NCc2ccccc2)nc2c1C1(CCCCC1)Cc1ccccc1-2 | 1.33 µM
49 | CC(C)C1Nc2c(O)cc(Cl)c([N+](=O)[O-])c2C2C=CCC21 (configuration not stated) | 3.1 µM
50 | Cc1cccc2nc(COc3ccc4ccccc4c3Br)cn12 | 4.94 µM
51 | C/C(=N\NC(=O)c1ccccc1O)C1C(=O)c2ccccc2C1=O | 4.69 µM
52 | CC[n+]1c(/C=C2\Sc3ccccc3N2C)ccc2cccc(C)c21 | 3.84 µM
